Source: ChEMBL document CHEMBL1201862, “PubChem BioAssay data set” (2004)
The source made the active and inactive calls.

Tests used:
[1] = biological target: E3 ubiquitin-protein ligase Mdm2 (Homo sapiens, UniProt Q00987); test: enhancers of MDM2-luciferase reporter signal, concentration-effect titration, project on inhibitors of MDM2 ubiquitin ligase, cellular assay, luminescent readout, 384-well plate format (AID 1394); format: functional;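 further: MDM2 E3 inhibitors raise luminescence so EC50 is for signal enhancement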
Sequence of E3 ubiquitin-protein ligase Mdm2 (Q00987 whole entry): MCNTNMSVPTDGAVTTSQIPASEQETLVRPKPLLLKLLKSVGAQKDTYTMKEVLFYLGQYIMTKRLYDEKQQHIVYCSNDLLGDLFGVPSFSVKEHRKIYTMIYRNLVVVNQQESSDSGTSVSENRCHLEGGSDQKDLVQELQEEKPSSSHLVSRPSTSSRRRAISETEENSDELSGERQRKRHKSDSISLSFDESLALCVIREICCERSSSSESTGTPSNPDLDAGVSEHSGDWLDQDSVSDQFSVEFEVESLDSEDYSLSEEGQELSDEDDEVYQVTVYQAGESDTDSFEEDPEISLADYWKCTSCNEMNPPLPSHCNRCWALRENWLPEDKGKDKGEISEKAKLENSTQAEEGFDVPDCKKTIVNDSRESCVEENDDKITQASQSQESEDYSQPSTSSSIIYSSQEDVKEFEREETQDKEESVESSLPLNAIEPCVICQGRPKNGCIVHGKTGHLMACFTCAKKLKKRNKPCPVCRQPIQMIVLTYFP

HEK293 [2] = test: Fluorescence-based counterscreen for potentiators or agonists of NPY-Y2: cell-based high-throughput dose response assay to identify inhibitors of cyclic nucleotide gated ion channel (CNGC) activity. In this assay, the parental HEK293 cell line transfected with a cyclic-nucleotide gated ion channel (CNGC)-based cAMP sensor is used to measure inhibition of isoproterenol-induced CNGC activity by test compound.; format: functional; details: Homo sapiens
Streptococcus = test: Group A Streptococcus viability loss, dose response, counter-screen for streptokinase expression inhibitor project, luminescence, BacTiterGlo (AID 1915); format: functional, organism-based;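 further: potency for reduction of bacterial viability or growth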
[3] = system: Streptococcus sp. 'group A'; test: growth inhibition of control SK(-) GAS strain, dose response, counter-screen for streptokinase expression inhibitor project, luminescence, kanamycin, BacTiterGlo, confirmation (AID 1900); format: functional, organism-based
[4] = M. tuberculosis H37Rv growth inhibitors, H37Rv strain (AID 1626); format: functional
Large T antigen = Large T antigen (Simian virus 40, UniProt P03070); format: functional, Betapolyomavirus macacae;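 further: Confirmatory-stage PubChem screen for compounds that inhibit SV40 T antigen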
[5] = biological target: Eukaryotic translation initiation factor 4E (Mus musculus, UniProt P63073); test: eIF4E–eIF4G protein interaction inhibitors, dose response, biochemical, TR-FRET (AID 855); format: functional;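 further: potency for disrupting eIF4E binding to eIF4GI seen as loss of FRET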
Sequence of Eukaryotic translation initiation factor 4E (P63073 whole entry): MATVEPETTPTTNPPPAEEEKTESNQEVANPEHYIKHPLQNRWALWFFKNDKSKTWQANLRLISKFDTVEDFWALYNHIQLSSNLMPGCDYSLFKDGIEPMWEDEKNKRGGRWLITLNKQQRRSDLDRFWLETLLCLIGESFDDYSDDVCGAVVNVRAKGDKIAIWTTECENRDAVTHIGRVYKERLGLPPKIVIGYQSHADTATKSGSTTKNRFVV

[6] = biological target: Mannose-6-phosphate isomerase (Homo sapiens, UniProt P34949); test: human PMI inhibitors, high substrate, primary screen, biochemical, fluorescence intensity, high mannose 6-phosphate (AID 1220)
[7] = biological target: DNA dC->dU-editing enzyme APOBEC-3G (Homo sapiens, UniProt Q9HC16); test: Dose Response confirmation of small molecule APOBEC3G DNA Deaminase Inhibitors via a fluorescence-based single-stranded DNA deaminase assay. [Related pubchem assays (depositor defined):AID493012, AID493028]; format: functional
Sequence of DNA dC->dU-editing enzyme APOBEC-3G (Q9HC16 whole entry): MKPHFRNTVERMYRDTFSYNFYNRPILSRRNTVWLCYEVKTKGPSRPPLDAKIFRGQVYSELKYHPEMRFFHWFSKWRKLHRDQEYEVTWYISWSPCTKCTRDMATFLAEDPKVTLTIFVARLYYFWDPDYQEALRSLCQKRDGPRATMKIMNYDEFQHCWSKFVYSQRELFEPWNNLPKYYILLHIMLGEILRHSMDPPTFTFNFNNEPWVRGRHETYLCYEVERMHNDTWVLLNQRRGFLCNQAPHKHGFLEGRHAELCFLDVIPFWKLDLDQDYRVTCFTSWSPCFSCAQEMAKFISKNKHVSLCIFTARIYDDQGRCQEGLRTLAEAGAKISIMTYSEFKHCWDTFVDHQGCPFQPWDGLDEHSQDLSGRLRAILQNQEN

[8] = biological target: Luciferin 4-monooxygenase (Photinus pyralis, UniProt P08659); test: Counter Screen for Luciferase-based Assay Positives. [Related pubchem assays: 620, 618, 411 ]
Sequence of Luciferin 4-monooxygenase (P08659 whole entry): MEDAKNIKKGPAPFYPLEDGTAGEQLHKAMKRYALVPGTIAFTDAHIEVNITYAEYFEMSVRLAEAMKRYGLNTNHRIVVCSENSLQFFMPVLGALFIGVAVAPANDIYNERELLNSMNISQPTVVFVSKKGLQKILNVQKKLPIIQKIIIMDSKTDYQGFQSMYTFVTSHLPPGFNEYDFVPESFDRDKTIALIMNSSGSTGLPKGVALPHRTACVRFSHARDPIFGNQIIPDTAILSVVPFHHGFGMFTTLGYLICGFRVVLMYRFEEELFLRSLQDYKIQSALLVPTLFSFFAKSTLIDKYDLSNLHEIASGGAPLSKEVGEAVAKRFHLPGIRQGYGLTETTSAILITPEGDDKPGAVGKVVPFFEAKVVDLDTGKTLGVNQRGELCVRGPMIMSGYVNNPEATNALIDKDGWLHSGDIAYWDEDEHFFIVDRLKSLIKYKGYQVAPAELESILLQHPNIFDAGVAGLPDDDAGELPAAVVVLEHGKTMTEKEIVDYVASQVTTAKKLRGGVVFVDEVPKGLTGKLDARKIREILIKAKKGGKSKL

HT-1080 = test: cytotoxicity in HT1080 fibrosarcoma cells, cell-based, fluorescence readout (AID 620); format: functional; details: Homo sapiens
Protein skinhead-1 = biological target: T1, Protein skinhead-1 (Caenorhabditis elegans, UniProt P34707); format: functional
T1 sequence (P34707 whole entry): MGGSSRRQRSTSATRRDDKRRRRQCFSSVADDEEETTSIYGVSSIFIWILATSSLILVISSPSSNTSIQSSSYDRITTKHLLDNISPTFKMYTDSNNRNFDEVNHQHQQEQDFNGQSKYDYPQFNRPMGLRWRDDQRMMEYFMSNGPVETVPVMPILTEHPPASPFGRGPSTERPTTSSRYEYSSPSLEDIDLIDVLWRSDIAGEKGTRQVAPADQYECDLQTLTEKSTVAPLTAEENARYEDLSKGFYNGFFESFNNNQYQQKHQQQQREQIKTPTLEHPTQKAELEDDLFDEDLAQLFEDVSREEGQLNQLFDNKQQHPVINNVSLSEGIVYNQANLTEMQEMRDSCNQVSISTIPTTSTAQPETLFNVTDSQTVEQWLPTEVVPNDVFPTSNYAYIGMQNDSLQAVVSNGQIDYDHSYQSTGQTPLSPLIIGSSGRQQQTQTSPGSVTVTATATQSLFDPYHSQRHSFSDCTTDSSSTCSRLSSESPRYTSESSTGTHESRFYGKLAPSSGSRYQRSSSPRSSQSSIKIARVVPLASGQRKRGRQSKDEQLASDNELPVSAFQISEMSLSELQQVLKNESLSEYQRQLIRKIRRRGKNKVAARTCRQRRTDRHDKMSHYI

NADPH oxidase 1 = NADPH oxidase 1 (Homo sapiens, UniProt Q9Y5S8); format: functional, cell-based;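 further: Cell-based assay with luminescence read-out, IC50 derived from inhibitor dose-response curves; intracellular ROS from endogenous NOX1 in intact HT29 colon cancer cells; potency of inhibitors that lower the ROS luminescence signal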
Sequence of NADPH oxidase 1 (Q9Y5S8 whole entry): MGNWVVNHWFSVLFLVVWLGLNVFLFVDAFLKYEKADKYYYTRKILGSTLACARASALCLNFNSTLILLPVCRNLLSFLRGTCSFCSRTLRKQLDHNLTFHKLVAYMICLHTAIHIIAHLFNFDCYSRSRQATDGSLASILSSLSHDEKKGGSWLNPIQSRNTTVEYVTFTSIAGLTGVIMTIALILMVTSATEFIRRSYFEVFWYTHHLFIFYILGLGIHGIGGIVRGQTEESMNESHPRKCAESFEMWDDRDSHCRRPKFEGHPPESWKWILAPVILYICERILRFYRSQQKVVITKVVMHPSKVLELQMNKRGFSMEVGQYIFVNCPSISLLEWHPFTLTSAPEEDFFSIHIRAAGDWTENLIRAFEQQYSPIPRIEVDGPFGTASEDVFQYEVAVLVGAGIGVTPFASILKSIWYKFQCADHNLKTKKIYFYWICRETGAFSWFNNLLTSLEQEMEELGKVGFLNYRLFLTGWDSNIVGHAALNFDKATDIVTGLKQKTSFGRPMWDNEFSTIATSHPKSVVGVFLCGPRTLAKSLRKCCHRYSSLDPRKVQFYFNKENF

[9] = biological target: Mitogen-activated protein kinase 10 (Homo sapiens, UniProt P53779); test: Dose response biochemical screening assay for inhibitors of c-Jun N-Terminal Kinase 3 (JNK3). [Related pubchem assays: 746 ]
Ephrin type-A receptor 4 = Ephrin type-A receptor 4 (Mus musculus, UniProt Q03137); test: inhibitors of EphA4 binding to KYL peptide, primary screen, biochemical, colorimetric, mouse EphA4 (AID 689); format: functional
Sequence of Ephrin type-A receptor 4 (Q03137 whole entry): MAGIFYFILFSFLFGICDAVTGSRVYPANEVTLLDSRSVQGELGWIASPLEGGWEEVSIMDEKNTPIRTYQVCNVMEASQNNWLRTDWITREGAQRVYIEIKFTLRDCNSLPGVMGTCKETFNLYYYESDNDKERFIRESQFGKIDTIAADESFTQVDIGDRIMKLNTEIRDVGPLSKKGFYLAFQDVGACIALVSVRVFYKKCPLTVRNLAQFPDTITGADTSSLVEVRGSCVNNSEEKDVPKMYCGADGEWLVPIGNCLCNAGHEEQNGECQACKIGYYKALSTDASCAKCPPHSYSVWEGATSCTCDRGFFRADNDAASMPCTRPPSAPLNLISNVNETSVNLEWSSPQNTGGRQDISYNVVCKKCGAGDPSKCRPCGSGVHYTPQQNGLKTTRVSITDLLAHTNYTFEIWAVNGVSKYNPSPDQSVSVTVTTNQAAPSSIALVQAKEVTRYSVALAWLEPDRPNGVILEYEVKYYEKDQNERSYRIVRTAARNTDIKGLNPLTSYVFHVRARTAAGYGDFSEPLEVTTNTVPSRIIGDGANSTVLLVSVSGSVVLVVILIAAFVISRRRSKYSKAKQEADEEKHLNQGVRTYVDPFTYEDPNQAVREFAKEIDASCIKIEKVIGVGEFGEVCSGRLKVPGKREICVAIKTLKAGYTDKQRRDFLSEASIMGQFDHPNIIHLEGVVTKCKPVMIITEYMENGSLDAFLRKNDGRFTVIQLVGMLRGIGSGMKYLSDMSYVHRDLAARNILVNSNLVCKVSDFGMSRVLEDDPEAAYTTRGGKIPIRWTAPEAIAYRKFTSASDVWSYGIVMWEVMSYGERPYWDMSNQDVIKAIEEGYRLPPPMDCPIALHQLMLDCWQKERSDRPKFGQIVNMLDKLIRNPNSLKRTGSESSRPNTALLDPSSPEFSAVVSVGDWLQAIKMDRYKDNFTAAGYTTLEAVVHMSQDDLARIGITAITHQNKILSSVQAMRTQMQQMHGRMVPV

[10] = biological target: T2, Neuropeptide Y receptor type 1 (Homo sapiens, UniProt P25929); test: Fluorescence-based counterscreen for agonists of NPY-Y2: cell-based high-throughput dose response assay for agonists of NPY-Y1.; format: functional
T2 sequence (P25929 whole entry): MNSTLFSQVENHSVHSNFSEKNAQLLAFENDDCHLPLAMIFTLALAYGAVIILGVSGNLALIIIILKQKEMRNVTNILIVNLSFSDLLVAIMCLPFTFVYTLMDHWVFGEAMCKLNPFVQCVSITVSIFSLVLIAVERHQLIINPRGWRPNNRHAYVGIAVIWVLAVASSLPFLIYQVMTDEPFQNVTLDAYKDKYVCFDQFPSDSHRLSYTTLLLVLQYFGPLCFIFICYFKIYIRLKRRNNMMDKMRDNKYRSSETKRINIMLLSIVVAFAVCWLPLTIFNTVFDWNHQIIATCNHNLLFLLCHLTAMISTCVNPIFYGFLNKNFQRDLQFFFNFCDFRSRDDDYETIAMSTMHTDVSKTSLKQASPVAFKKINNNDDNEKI

[11] = biological target: T3, Neuropeptide Y receptor type 2 (Homo sapiens, UniProt P49146); test: Fluorescence-based cell-based high-throughput dose response assay for agonists of NPY-Y2. [Related pubchem assays: 1703 (Screening assay (CNGC inhibitors).), 1359 (Screening assay (NPY-Y2 potentiators or agonists).), 1304 (Screening assay (NPY-Y1 potentiators or agonists).), 1710 (Screening assay (NPY-Y2 agonists).), 1791 (Summary AID.)]; format: functional
T3 sequence (P49146 whole entry): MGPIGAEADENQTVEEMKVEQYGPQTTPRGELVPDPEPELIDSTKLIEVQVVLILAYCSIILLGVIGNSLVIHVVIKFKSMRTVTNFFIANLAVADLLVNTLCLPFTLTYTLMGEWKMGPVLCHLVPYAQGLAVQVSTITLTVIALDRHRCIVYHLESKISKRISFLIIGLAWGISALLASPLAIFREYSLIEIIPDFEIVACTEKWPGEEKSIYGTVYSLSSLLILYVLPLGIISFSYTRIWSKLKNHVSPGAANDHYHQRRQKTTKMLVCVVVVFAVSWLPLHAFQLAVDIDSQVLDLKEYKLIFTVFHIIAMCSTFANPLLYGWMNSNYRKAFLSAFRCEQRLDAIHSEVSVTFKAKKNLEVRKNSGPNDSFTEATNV

[12] = biological target: Heat shock protein HSP 90-alpha (Homo sapiens, UniProt P07900); test: Luminescence-based dose response biochemical high throughput screening assay for inhibitors of the Heat Shock Protein 90 (HSP90). [Related pubchem assays: 1831 (Summary AID.), 1846 (Confirmation screen.), 1789 (Primary screen.)]
[13] = biological target: Photoreceptor-specific nuclear receptor (Homo sapiens, UniProt Q9Y5X4); test: NR2E3 inverse agonists, dose response, biochemical, TR-FRET (AID 463256); format: functional
[14] = biological target: Peroxisome proliferator-activated receptor gamma/Nuclear receptor corepressor 2 (Homo sapiens, UniProt P37231+Q9Y618); test: Counterscreen for NR2E3 inverse agonists: TR-FRET-based biochemical high throughput dose response assay to identify inverse agonists of the interaction between peroxisome proliferator-activated receptor gamma (PPARg) and nuclear receptor co-repressor 2 (NCOR2).; format: functional
[15] = biological target: SWI/SNF-related matrix-associated actin-dependent regulator of chromatin subfamily A member 2 (Homo sapiens, UniProt P51531); test: Luminescence-based cell-based high throughput dose response assay to identify activators of the function of SWI/SNF related, matrix associated, actin dependent regulator of chromatin, subfamily a, member 2 (SMARCA2, BRM).; format: functional
Sequence of SWI/SNF-related matrix-associated actin-dependent regulator of chromatin subfamily A member 2 (P51531 whole entry): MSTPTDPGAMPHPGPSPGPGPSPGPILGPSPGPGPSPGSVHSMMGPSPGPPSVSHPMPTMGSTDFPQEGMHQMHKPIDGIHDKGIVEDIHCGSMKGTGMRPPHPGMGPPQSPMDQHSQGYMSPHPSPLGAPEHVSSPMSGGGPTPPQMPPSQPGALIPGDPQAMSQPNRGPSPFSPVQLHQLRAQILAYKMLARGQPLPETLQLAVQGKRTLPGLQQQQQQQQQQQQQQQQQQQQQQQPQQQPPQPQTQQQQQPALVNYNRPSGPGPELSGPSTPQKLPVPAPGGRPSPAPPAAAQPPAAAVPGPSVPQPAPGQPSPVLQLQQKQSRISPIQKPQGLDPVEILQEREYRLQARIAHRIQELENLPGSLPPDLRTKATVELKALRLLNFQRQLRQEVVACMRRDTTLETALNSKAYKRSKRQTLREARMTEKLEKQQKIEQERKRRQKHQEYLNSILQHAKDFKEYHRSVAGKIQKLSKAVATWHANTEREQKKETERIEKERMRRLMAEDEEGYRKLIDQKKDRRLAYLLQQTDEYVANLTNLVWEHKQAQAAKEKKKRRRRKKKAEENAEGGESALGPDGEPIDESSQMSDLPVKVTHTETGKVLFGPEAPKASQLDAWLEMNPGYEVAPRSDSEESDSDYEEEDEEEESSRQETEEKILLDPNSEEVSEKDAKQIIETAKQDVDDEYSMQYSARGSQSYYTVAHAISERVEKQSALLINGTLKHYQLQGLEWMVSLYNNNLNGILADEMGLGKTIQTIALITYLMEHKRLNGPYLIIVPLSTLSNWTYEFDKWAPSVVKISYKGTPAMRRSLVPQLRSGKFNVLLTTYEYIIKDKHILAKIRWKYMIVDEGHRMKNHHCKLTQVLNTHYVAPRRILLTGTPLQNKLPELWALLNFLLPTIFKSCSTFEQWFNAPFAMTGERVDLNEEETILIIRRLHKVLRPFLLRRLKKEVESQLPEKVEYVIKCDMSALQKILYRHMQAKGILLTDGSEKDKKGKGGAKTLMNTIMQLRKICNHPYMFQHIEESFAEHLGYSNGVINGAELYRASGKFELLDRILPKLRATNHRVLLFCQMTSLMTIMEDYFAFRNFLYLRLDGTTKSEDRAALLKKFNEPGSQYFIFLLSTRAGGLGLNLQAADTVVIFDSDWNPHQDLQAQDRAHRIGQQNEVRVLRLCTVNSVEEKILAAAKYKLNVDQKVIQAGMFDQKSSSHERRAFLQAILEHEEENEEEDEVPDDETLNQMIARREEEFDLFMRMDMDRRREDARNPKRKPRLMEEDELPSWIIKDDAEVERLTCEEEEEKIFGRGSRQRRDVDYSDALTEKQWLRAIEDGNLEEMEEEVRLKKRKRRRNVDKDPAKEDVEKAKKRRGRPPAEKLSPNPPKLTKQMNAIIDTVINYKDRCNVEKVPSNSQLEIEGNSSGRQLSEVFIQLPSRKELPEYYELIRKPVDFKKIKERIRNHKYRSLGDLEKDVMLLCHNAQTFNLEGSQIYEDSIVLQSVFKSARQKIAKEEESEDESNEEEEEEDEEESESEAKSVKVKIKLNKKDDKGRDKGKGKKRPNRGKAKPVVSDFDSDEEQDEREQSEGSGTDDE

HEK293 [16] = test: inhibitors of LMP1-driven NF-kB reporter, dose response, cell-based, HEK293, luciferase, cherry-pick (AID 588343); format: functional; details: Homo sapiens
[17] = biological target: T4, Acyl-homoserine lactone acylase PvdQ (Pseudomonas aeruginosa (strain LESB58), UniProt Q9I194); test: P. aeruginosa PvdQ acylase inhibitors, dose response, biochemical, fluorescence, plate reader and imaging, cherry-picks (AID 493231)
T4 sequence (Q9I194 whole entry): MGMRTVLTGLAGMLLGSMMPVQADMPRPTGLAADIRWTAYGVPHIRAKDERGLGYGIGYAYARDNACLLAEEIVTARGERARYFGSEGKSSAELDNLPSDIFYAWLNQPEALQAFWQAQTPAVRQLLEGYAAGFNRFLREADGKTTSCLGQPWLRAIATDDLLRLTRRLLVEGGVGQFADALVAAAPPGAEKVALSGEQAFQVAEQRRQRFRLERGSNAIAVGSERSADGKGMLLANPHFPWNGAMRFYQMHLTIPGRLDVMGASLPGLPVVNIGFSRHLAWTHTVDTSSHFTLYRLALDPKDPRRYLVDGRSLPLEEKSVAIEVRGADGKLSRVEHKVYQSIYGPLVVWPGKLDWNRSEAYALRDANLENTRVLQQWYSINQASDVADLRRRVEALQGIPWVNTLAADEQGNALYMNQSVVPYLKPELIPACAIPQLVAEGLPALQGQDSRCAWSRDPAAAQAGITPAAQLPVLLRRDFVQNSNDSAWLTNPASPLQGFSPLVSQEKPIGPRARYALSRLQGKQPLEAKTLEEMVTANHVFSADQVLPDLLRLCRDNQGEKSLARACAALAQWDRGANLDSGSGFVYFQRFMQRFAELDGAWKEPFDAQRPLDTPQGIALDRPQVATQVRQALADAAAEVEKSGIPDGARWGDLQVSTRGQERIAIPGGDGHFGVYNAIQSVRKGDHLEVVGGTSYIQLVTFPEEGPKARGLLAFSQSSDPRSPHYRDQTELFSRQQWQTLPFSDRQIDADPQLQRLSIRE

[18] = Counterscreen for activators of the function of SWI/SNF related, matrix associated, actin dependent regulator of chromatin, subfamily a, member 2 (SMARCA2, BRM): Luminescence-based cell-based high throughput dose response assay to identify non-selective compounds using the VP16 reporter assay.; format: functional
[19] = enhancers of respiration in Yfh1-depleted yeast, dose response, Friedreich's ataxia, plus single-dose screen (AID 1465); format: functional;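 further: yeast depleted of Yfh1p frataxin homolog grown on glycerol needing respiration; WST-1 tetrazolium dye reduction as measure of cellular dehydrogenase metabolic activity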

For `CCOC(=O)Cn1nnnc1C`, the EC50 [1] was 827 µM (not active).
For `O=[N+]([O-])c1cc(C(F)(F)F)cc([N+](=O)[O-])c1NCCN=C(S)Nc1ccc(Cl)c(Cl)c1`, the EC50 (HEK293 [2]) was 7.47 µM (active), the EC50 (Streptococcus) was 6.5 µM (active) and the EC50 [3] was 4.03 µM (active).
In the case of `Cc1cc(C)cc(OCc2nnc(SCC(=O)OC(C)C)o2)c1`, the IC50 [4] is reported as > 100 µM (active).
With `CC(C)(O)C1Cc2cc(/C=C/C(=O)O)c(O)cc2O1` (stereo not given) the IC50 (Large T antigen) was 38.3 µM (active), the IC50 [5] was 30.4 µM (active) and the IC50 [6] was 8.63 µM (active). For the same compound, the IC50 [7] was 38.2 µM (active).
In the case of `Cc1ccc(S(=O)(=O)N2CCN(C(=O)CC(C)C)CC2)cc1`, the EC50 [1] is reported as 7.17 µM (not active).
In the case of `O=c1c2ccccc2nnn1CSc1nnc2sc3ccccc3n12`, the EC50 [8] is reported as 0.52 µM (active) and the EC50 (HT-1080) is reported as > 50 µM (not active).
With `COc1ccccc1NC(=O)CN1CCN(C2c3ccccc3-c3ccccc32)CC1` the IC50 [4] was > 100 µM (active) and the IC50 (Protein skinhead-1) was > 100 µM (inactive).
In the case of `O=C(Oc1ccc([N+](=O)[O-])cc1)c1cc2ccccc2s1`, the IC50 (NADPH oxidase 1) is reported as > 17 µM (not active).
In the case of `O=C(CCCCCn1c(=S)[nH]c2ccccc2c1=O)N1CCC2(CC1)OCCO2`, the IC50 [9] is reported as 29.7 µM (not active).
In the case of `CCc1cccc2c(C(=O)CSc3nnc(-c4ccoc4C)n3C)c[nH]c12`, the IC50 (Ephrin type-A receptor 4) is reported as 12.7 µM (active).
In the case of `O=C(NNC(=O)Nc1ccc(Cl)cc1)Nc1ccc(Cl)cc1`, the IC50 (NADPH oxidase 1) is reported as > 17 µM (not active).
For `Cc1cc2c(cc1C)N(C(=O)CSC1=NCCS1)C(C)(C)c1ssc(=S)c1-2`, the EC50 (HEK293 [2]) was > 35.4 µM (not active), the EC50 [10] was 22.2 µM (not active) and the EC50 [11] was 32 µM (not active).
For `Cc1cc2ccccc2n1CCNC(=O)c1ccccc1`, the IC50 [12] was 2.52 µM (active), the IC50 (Ephrin type-A receptor 4) was 32.7 µM (active) and the IC50 (Protein skinhead-1) was > 100 µM (inactive).
With `CC(=O)c1sc(NC(=O)CCCOc2ccc(Cl)cc2)nc1C` the IC50 [13] was 4.49 µM (active) and the IC50 [14] was 3.5 µM (active).
With `CCOc1ccc(NC(=O)c2cnsn2)cc1` the EC50 [15] was > 91.2 µM (inactive), the EC50 [8] was 48.3 µM (active) and the EC50 (HT-1080) was > 50 µM (not active). For the same compound, the AC50 (HEK293 [16]) was 5.39 µM (active), the AC50 [17] was 81 µM (active) and the EC50 [18] was > 91.2 µM (inactive).
In the case of `COc1cc([N+](=O)[O-])cc(/C=N\NC(=O)C2COc3ccccc3O2)c1O` (stereo not given), the EC50 [19] is reported as > 100 µM (active), the EC50 (Streptococcus) is reported as 3.33 µM (active) and the EC50 [3] is reported as 2.97 µM (active).
